Results: ChEMBL document CHEMBL4814065, “Taurultams incorporating arylsulfonamide: First in vitro inhibition studies of α-, β- and γ-class Carbonic Anhydrases from Vibrio cholerae and Burkholderia pseudomallei” (Eur J Med Chem, 2021)

Key:
[1] = Inhibition of Burkholderia pseudomallei gamma carbonic anhydrase preincubated with enzyme for 15 mins by phenol red-based stopped-flow CO2 hydration assay
[2] = Inhibition of Vibrio cholerae alpha carbonic anhydrase preincubated with enzyme for 15 mins by phenol red-based stopped-flow CO2 hydration assay
[3] = Inhibition of Vibrio cholerae beta carbonic anhydrase preincubated with enzyme for 15 mins by phenol red-based stopped-flow CO2 hydration assay
[4] = Inhibition of Burkholderia pseudomallei beta carbonic anhydrase preincubated with enzyme for 15 mins by phenol red-based stopped-flow CO2 hydration assay
[5] = Inhibition of Vibrio cholerae gamma carbonic anhydrase preincubated with enzyme for 15 mins by phenol red-based stopped-flow CO2 hydration assay
[6] = Selectivity index, ratio of Ki for Vibrio cholerae beta carbonic anhydrase to Ki for human carbonic anhydrase 2
[7] = Selectivity index, ratio of Ki for Burkholderia pseudomallei gamma carbonic anhydrase to Ki for human carbonic anhydrase 2
[8] = Selectivity index, ratio of Ki for Vibrio cholerae gamma carbonic anhydrase to Ki for human carbonic anhydrase 2
[9] = Selectivity index, ratio of Ki for Burkholderia pseudomallei beta carbonic anhydrase to Ki for human carbonic anhydrase 2
[10] = Selectivity index, ratio of Ki for Vibrio cholerae alpha carbonic anhydrase to Ki for human carbonic anhydrase 2

NS(=O)(=O)c1ccc(N2CN(Cc3cccc(Cl)c3)CCS2(=O)=O)cc1 gave a Ki [1] of 68.7 nM, a Ki [2] of 37.7 nM and a Ki [3] of 3970 nM. For the same compound, the Ki [4] was 416 nM and the Ki [5] was 6770 nM.
Compound NS(=O)(=O)c1ccc(CCN2CN(Cc3c(F)cccc3F)CCS2(=O)=O)cc1 has a Ratio Ki [6] of 16.9, a Ki [1] of 19.5 nM and a Ki [2] of 8 nM. It also gave a Ki [3] of 952 nM, a Ki [4] of 393 nM and a Ratio Ki [7] of 0.3. The Ki [5] was 8820 nM, the Ratio Ki [8] was 156 and the Ratio Ki [9] was 7. For the same compound, the Ratio Ki [10] was 0.14.
For NS(=O)(=O)c1ccc(N2CCCCS2(=O)=O)cc1, the Ki [1] was > 50000 nM.
NS(=O)(=O)c1ccc(N2CN(Cc3c(F)c(F)c(F)c(F)c3F)CCS2(=O)=O)cc1 showed a Ki [1] of 824 nM, a Ki [2] of 8.5 nM and a Ki [3] of 4440 nM. It also gave a Ki [4] of 81.8 nM and a Ki [5] of 8110 nM.
